The source of these data is patent US11207291B2, “Antimicrobial compositions comprising cannabinoids and methods of using the same” (Graphium Biosciences, Inc., priority 2017, dated 2021).

As usually defined, the MBC is the smallest concentration meeting the test's criterion for killing.

The test system of one series is S. aureus ATCC 29213. As to the kind of experiment: MIC/MBC testing (Example 5). The note with it: Staphylococcus aureus, ATCC29213; Example 5; read-out: MIC. The class given is cell-based.
The subject of the next series is E. coli ATCC 25922. As to the kind of experiment: MIC/MBC testing (Example 5). The format is cell-based.
The next series has as its system S. pyogenes MMX 404. As to the kind of experiment: MIC/MBC testing (Example 5). The class given is cell-based. Conditions: Streptococcus pyogenes, MMX404; Example 5; read-out: MIC.
The subject of another series is E. faecalis MMX 848. Kind of series: MIC/MBC testing (Example 5). The class given is cell-based. Conditions: Enterococcus faecalis, MMX848; Example 5; read-out: MIC.
Another series has as its system S. pneumoniae ATCC 49619. As to the kind of experiment: MIC/MBC testing (Example 5). The format is cell-based. The note with it: Streptococcus pneumoniae, ATCC49619; Example 5; read-out: MIC.
A further series has as its system S. aureus MMX 757. Kind of series: MIC/MBC testing (Example 5). The format is cell-based. Conditions: Staphylococcus aureus, MMX757; Example 5; read-out: MIC.
Another series relates to E. faecalis ATCC 29212. Kind of series: MIC/MBC testing (Example 5). The class given is cell-based. The note with it: Enterococcus faecalis, ATCC29212; Example 5; read-out: MIC.
For series [1], the system named is Enterococcus faecalis (VSE). Kind of series: Broth microdilution MIC, aerobic bacteria (Example 1). The class given is cell-based. The note with it: isolate MMX 101 (ATCC 29212). (In general: In broth dilution the organism is exposed to a series of concentrations in liquid medium.)
Series [2] relates to Enterococcus faecalis (VRE). Kind of series: microbe, parasite or virus in culture. The note with it: Example 1; isolate MMX 848. The class given is cell-based.
The next series has as its system Escherichia coli. Kind of series: Broth microdilution MIC, aerobic bacteria (Example 1). Conditions: isolate MMX 102 (ATCC 25922). The class given is cell-based.
Series [3] concerns Staphylococcus aureus (MSSA). The description is as above. The format is cell-based. Conditions: isolate MMX 100 (ATCC 29213).
Another series concerns Pseudomonas aeruginosa. The series is described as above. The note with it: Example 1; isolate MMX 1380. The class given is cell-based.
Another series has as its system Streptococcus pneumoniae. Described as above. The class given is cell-based. The note with it: Example 1; isolate MMX 1195 (ATCC 49619).
Another series has as its system Candida parapsilosis. As to the kind of experiment: Broth microdilution MIC, yeast and fungi (Example 1). The format is cell-based.
Another series relates to Lactobacillus crispatus. As to the kind of experiment: Broth microdilution MIC, anaerobic bacteria (Example 1). The note with it: Example 1; isolate MMX 4147. The class given is cell-based.
The test system of another series is Streptococcus pyogenes. Kind of series: Broth microdilution MIC, aerobic bacteria (Example 1). The class given is cell-based. Conditions: isolate MMX 404.
The subject of another series is Acinetobacter baumannii. The description is as above. Conditions: Example 1; isolate MMX 1630. The format is cell-based.
Series [4] deals with Staphylococcus aureus (MRSA). As to the kind of experiment: microbe, parasite or virus in culture. The class given is cell-based. The note with it: Example 1; isolate MMX 757.
Another series relates to Aspergillus fumigatus. As to the kind of experiment: Broth microdilution MIC, yeast and fungi (Example 1). The class given is cell-based. Conditions: isolate MMX 5280 (ATCC MYA-3626).
In a further series the test system is Clostridium difficile. Kind of series: Broth microdilution MIC, anaerobic bacteria (Example 1). Conditions: Example 1. The class given is cell-based.
Series [5] deals with Klebsiella pneumoniae (KPC-2). The format is cell-based. The note with it: Example 1; isolate MMX 4683.
The subject of the next series is Bacteroides fragilis. Kind of series: Broth microdilution MIC, anaerobic bacteria (Example 1). The class given is cell-based. The note with it: Example 1; isolate MMX 123 (ATCC 5285).
For the next series, the system named is Bifidobacterium longum. The description is as above. The format is cell-based. The note with it: Example 1; isolate MMX 3968.
A short description of series [6]: Compound precipitation in uninoculated solubility controls (Example 1). The format is physicochemical. Set-up: key to precipitation observed (type): NA: not applicable (no precipitation observed); TRP: trace precipitate; DCP: distinct precipitate. Here is the method:
Plates were stacked 3-4 high, covered with a lid on the top plate, placed in plastic bags, and incubated at 35° C. for approximately 16 to 20 hr (aerobes), 20 to 24 hr (Streptococcus), and 24 and 48 hr (fungi). Anaerobe plates were stacked, covered with a lid on the top plate, placed in a BD GasPak EZ Anaerobe Container System and incubated at 35° C. for 48 hr. Following incubation, the microplates were removed from the incubator and viewed from the bottom using a plate viewer. […] The MIC was read and recorded as the lowest concentration of drug that inhibited visible growth of the organism.

The subject of the next series is Bifidobacterium bifidum. Kind of series: Broth microdilution MIC, anaerobic bacteria (Example 1). The note with it: Example 1; isolate MMX 3965. The class given is cell-based.
Series [7] in a line: Bioavailability assay: VB110 and CBD decoupling analysis of intestinal contents (Example 2). The note with it: mice, oral gavage 120 mg/kg VB110. The class given is in vivo. The procedure:
In order to investigate the effectiveness of glycosylation to effect site-specific drug delivery, VB110 was administered to three mice by oral gavage and the animals sacrificed at 30, 60, and 90 minutes. Eight-week old male Swiss mice were fasted for 12 hours prior to administration of 120 mg/kg VB110 in 10% Ethanol USP, 10% Propylene Glycol USP, 0.05% Sodium Deoxycholate USP, 79.95% Saline USP. Following termination and tissue harvest, the intestinal contents were then extracted and analyzed by C18 reverse phase HPLC. […] This decoupling of VB110 is consistent with the large intestinal decoupling seen for sennoside beta-glycosides and is the result of secreted beta-glycosidases from the large intestinal microflora.

The test system of the next series is Lactobacillus jensenii. Kind of series: Broth microdilution MIC, anaerobic bacteria (Example 1). The class given is cell-based. Conditions: Example 1; isolate MMX 4149.

In brackets after ≈: the same amount, converted by molar mass.

As for `C[C@@H](O)[C@H]1C(=O)N2C(C(=O)O)=C(SCCN=CN)C[C@H]12` [Imipenem], the MIC with S. aureus ATCC 29213 was 0.015 µg/mL (≈ 0.0501 µM); with E. coli ATCC 25922 (Escherichia coli, ATCC25922, Example 5, read-out: MIC), 0.12 µg/mL (≈ 0.401 µM); with S. pyogenes MMX 404 it was no more than 0.008 µg/mL; with E. faecalis MMX 848, 1 µg/mL (≈ 3.34 µM); in the series on S. pneumoniae ATCC 49619, 0.015 µg/mL (≈ 0.0501 µM); with S. aureus MMX 757 it was 4 µg/mL (≈ 13.4 µM). For the same compound, the MIC in the series with E. faecalis ATCC 29212 was 0.5 µg/mL (≈ 1.67 µM). In the series on E. coli ATCC 25922 (Escherichia coli, ATCC25922, Example 5, quality control MBC test), this compound returned an MBC of 0.12 µg/mL (≈ 0.401 µM). The “MBC:MIC” value in the series with E. coli ATCC 25922 (ratios of 1-4 are indicative of bactericidal activity) turned out to be 1.

As to `C=C(C)[C@@H]1CCC(C)=C[C@H]1c1c(O[C@@H]2O[C@H](CO)[C@@H](O)[C@H](O)[C@H]2O)cc(CCCCC)cc1O[C@@H]1O[C@H](CO)[C@@H](O)[C@H](O)[C@H]1O` [VB110], the MIC (in series [1]; in series [2]; against Escherichia coli; in series [3]; in the series on Pseudomonas aeruginosa; against Streptococcus pneumoniae) was greater than 256 µg/mL throughout. Further, the MIC (with Lactobacillus crispatus; against Streptococcus pyogenes; against Acinetobacter baumannii; in [4]; against Clostridium difficile (isolate MMX 4381 (ATCC 00057)); against Clostridium difficile (isolate MMX 8330)) was greater than 256 µg/mL each time. The MIC (in the series with Clostridium difficile (isolate MMX 8333); in series [5]; with Bacteroides fragilis; with Bifidobacterium longum; in the series on Bifidobacterium bifidum; against Lactobacillus jensenii) was greater than 256 µg/mL in each case. Besides, the “inhibition of growth relative to the growth control” value in the series on Candida parapsilosis (24 and 48 hr, concentrations >16 μg/mL) stood at 50%. For the same compound, the “MIC at 24 hr” value is recorded as >256^2, μg/mL against Candida parapsilosis (Example 1, 24 hr, isolate MMX 2323 (ATCC 22019)) and >256, μg/mL against Aspergillus fumigatus (24 hr). The “MIC at 48 hr” value in the series with Candida parapsilosis (Example 1, 48 hr, isolate MMX 2323 (ATCC 22019)) was >256^2 μg/mL; against Aspergillus fumigatus (48 hr) it was greater than 256 µg/mL. The results for the “precipitation observed (type)” value in series [6] (MHB II) and in series [6] (RPMI) were “none” and “TRP”, respectively. Also, in [6] (RPMI), the “lowest concentration at which precipitation was observed” value came to 32 µg/mL. For the same compound, the “small intestinal contents (HPLC)” value in series [7] (30, 60, and 90 minutes) is reported as “intact VB110, but no decoupled CBD”. The “large intestinal contents (HPLC)” value in series [7] (60 and 90 minute time points) is “contained both VB110 and CBD”.
